# Data from patent US12655116B2, “Substituted isophthalic acid diamides” (Bayer Aktiengesellschaft, priority 2020, dated 2026).
# Experiments:
# ABUTH [1] = test: Pre-emergence herbicidal action against ABUTH; format: in vivo, Abutilon theophrasti
# Outline: (§1)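 Seeds sown in sandy loam, soil-covered; compound sprayed on soil surface pre-emergence. Application: WP/EC, 600–800 l/ha, 0.2% wetting agent. Readout: visual % damage at 3 weeks.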
# AMARE [2] = test: Pre-emergence herbicidal action against AMARE; format: in vivo, Amaranthus retroflexus
# Outline: as §1
# ECHCG [3] = test: Pre-emergence herbicidal action against ECHCG; format: in vivo, Echinochloa crus-galli; conditions: 80 g/ha
# Outline: as §1
# LOLRI = test: Pre-emergence herbicidal action against LOLRI; format: in vivo, Lolium rigidum; conditions: 80 g/ha
# Source text: Seeds of monocotyledonous and dicotyledonous weed plants and crop plants are laid out in sandy loam soil in wood-fiber pots and covered with soil. The compounds of the invention, formulated in the form of wettable powders (WP) or as emulsion concentrates (EC), are then applied to the surface of the covering soil in the form of an aqueous suspension or emulsion at a water application rate equivalent to 600 to 800 l/ha, with addition of 0.2% wetting agent. After the treatment, the pots are placed in a greenhouse and kept under good growth conditions for the trial plants. The damage to the test plants is scored visually after a test period of 3 weeks by comparison with untreated controls (herbicidal activity in percent (%): 100% activity=the plants have died, 0% activity=like control plants). […] The tables below illustrate, in an illustrative manner, the post-emergence herbicidal action of the compounds of the invention, the herbicidal activity being stated in percent.
# MATIN = test: Pre-emergence herbicidal action against MATIN; format: in vivo, Matricaria inodora
# Outline: as §1
# VERPE [4] = test: Pre-emergence herbicidal action against VERPE; format: in vivo, Veronica persica; conditions: dosage 80 g/ha
# Outline: as §1
# ABUTH [5] = test: Post-emergence herbicidal action against ABUTH; format: in vivo, Abutilon theophrasti; conditions: dosage 20 g/ha, visual assessment about 3 weeks after treatment vs untreated controls
# Outline: (§2)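 Percent herbicidal action is rated by eye about 3 weeks after treatment against untreated controls, where 100% means dead plants and 0% means like controls. Plants in sandy loam are sprayed on green parts at the one-leaf stage with aqueous WP or EC preparations at 600 to 800 l/ha plus 0.2% wetting agent.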
# AMARE [6] = test: Post-emergence herbicidal action against AMARE; format: in vivo, Amaranthus retroflexus; conditions: 20 g/ha, visual assessment about 3 weeks after treatment, 100% = plants have died, 0% = like control plants
# Outline: as §2
# ECHCG [7] = test: Post-emergence herbicidal action against ECHCG; format: in vivo, Echinochloa crus-galli; conditions: dosage 20 g/ha
# Outline: as §2
# PHBPU = test: Post-emergence herbicidal action against PHBPU; format: in vivo, Pharbitis purpurea
# Outline: as §2
# ALOMY = test: Pre-emergence herbicidal action against ALOMY; format: in vivo, Alopecurus myosuroides; conditions: Alopecurus myosuroides, 504 h, pre-emergence
# Outline: as §1
# AVEFA = test: Pre-emergence herbicidal action against AVEFA; format: in vivo, Avena fatua; conditions: Avena fatua, 504 h; 80 g/ha, pre-emergence
# Outline: as §1
# SETVI = test: Pre-emergence herbicidal action against SETVI; format: in vivo, Setaria viridis; conditions: Setaria viridis, 504 h
# Outline: as §1
# VIOTR [8] = test: Pre-emergence herbicidal action against VIOTR; format: in vivo, Viola tricolor; conditions: Viola tricolor, 504 h
# Outline: as §1
# DIGSA [9] = test: Pre-emergence herbicidal action against DIGSA; format: in vivo, Digitaria sanguinalis; conditions: Digitaria sanguinalis, 504 h
# Outline: as §1
# VERPE [10] = test: Post-emergence herbicidal action against VERPE; format: in vivo, Veronica persica; conditions: Veronica persica, 504 h, 20 g/ha
# Outline: as §2
# VIOTR [11] = test: Post-emergence herbicidal action against VIOTR; format: in vivo, Viola tricolor; conditions: Viola tricolor, 504 h, 20 g/ha
# Outline: as §2
# DIGSA [12] = test: Post-emergence herbicidal action against DIGSA; format: in vivo, Digitaria sanguinalis; conditions: Digitaria sanguinalis, 504 h
# Outline: as §2
# [13] = 80 g/ha, scored visually after 3 weeks vs untreated controls (100% = plants have died, 0% = like control plants)
smiles,measurement,setting,value
Cn1nnnc1NC(=O)c1ccc(C(F)F)c(C(=O)NCC2CCCO2)c1Cl (centres unmarked) [Example 1-159],Pre-emergence action against ABUTH (herbicidal activity),ABUTH [1]; [13],100%
same,Pre-emergence action against ABUTH (herbicidal activity in percent),"ABUTH [1]; dosage 20 g/ha, scored visually after 3 weeks vs untreated controls, 100% = plants have died, 0% = like control plants",80%
same,Pre-emergence action against AMARE in %,"AMARE [2]; 20 g/ha, scored visually after 3 weeks vs untreated controls, 100% = plants have died, 0% = like control plants",100%
same,Pre-emergence action against AMARE in %,AMARE [2]; [13],100%
same,Pre-emergence action against ECHCG in %,ECHCG [3],90%
same,Pre-emergence action against LOLRI in %,LOLRI,80%
same,Pre-emergence action against MATIN in %,MATIN; dosage 80 g/ha,90%
same,Pre-emergence action against VERPE in %,VERPE [4],80%
same,Post-emergence action against ABUTH in %,ABUTH [5],80%
same,Post-emergence action at 20 g/ha against AMARE in %,AMARE [6],100%
same,Post-emergence action against ECHCG in %,ECHCG [7],90%
same,Post-emergence action against PHBPU in %,PHBPU; dosage 5 g/ha,80%
same,Post-emergence action against PHBPU in %,PHBPU; dosage 20 g/ha,80%
Cn1nnnc1NC(=O)c1ccc(I)c(C(=O)NC2CC2)c1Cl [Example 1-197],pest or weed control at 80 g/ha,"ABUTH [1]; Abutilon theophrasti, 504 h, 80 g/ha, scored visually after 3 weeks vs untreated controls (100% = plants have died, 0% = like control plants)",100%
same,pest or weed control at 20 g/ha,"ABUTH [1]; Abutilon theophrasti, 504 h, dosage 20 g/ha, scored visually after 3 weeks vs untreated controls, 100% = plants have died, 0% = like control plants, read-out: Pre-emergence action against ABUTH (herbicidal activity in percent)",100%
same,pest or weed control at 80 g/ha,ALOMY; [13],100%
same,pest or weed control at 20 g/ha,"ALOMY; 20 g/ha, scored visually after 3 weeks, 100% = plants have died, 0% = like control plants",100%
same,pest or weed control at 20 g/ha,"AMARE [2]; Amaranthus retroflexus, 504 h, 20 g/ha, scored visually after 3 weeks vs untreated controls, 100% = plants have died, 0% = like control plants",100%
same,pest or weed control at 80 g/ha,"AMARE [2]; Amaranthus retroflexus, 504 h, 80 g/ha, scored visually after 3 weeks vs untreated controls, 100% = plants have died, 0% = like control plants",100%
same,pest or weed control at 80 g/ha,AVEFA,100%
same,pest or weed control at 80 g/ha,"ECHCG [3]; Echinochloa crus-galli, 504 h",90%
same,pest or weed control at 80 g/ha,"LOLRI; Lolium rigidum, 504 h",80%
same,pest or weed control at 20 g/ha,"MATIN; Tripleurospermum inodorum, 504 h, dosage 20 g/ha",90%
same,pest or weed control at 80 g/ha,"MATIN; Tripleurospermum inodorum, 504 h, dosage 80 g/ha",100%
same,pest or weed control at 20 g/ha,SETVI; dosage 20 g/ha,100%
same,pest or weed control at 80 g/ha,SETVI; dosage 80 g/ha,100%
same,pest or weed control at 20 g/ha,VIOTR [8]; dosage 20 g/ha,100%
same,pest or weed control at 80 g/ha,VIOTR [8]; dosage 80 g/ha,100%
same,pest or weed control at 20 g/ha,DIGSA [9]; dosage 20 g/ha,100%
same,pest or weed control at 80 g/ha,DIGSA [9]; dosage 80 g/ha,100%
same,pest or weed control at 20 g/ha,"ABUTH [5]; Abutilon theophrasti, 504 h",100%
same,pest or weed control at 20 g/ha,"AMARE [6]; Amaranthus retroflexus, 504 h",100%
same,pest or weed control at 20 g/ha,"ECHCG [7]; Echinochloa crus-galli, 504 h",90%
same,pest or weed control at 20 g/ha,"PHBPU; Ipomoea purpurea, 504 h, dosage 20 g/ha",90%
same,pest or weed control at 20 g/ha,VERPE [10],80%
same,pest or weed control at 20 g/ha,VIOTR [11],100%
same,pest or weed control at 5 g/ha,DIGSA [12]; 5 g/ha,100%
same,pest or weed control at 20 g/ha,DIGSA [12]; 20 g/ha,100%
